For 32 compounds, IC50 results are on record in US20230087118A1, “IMIDAZO[1,2-a][sequence] DERIVATIVES AND THEIR USE IN THE TREATMENT OF DISEASE” (priority 2019, published 2023).

Structures can show the parent of a compound that is named as a salt.

The first test deals with T1, IRAK4 (Homo sapiens, UniProt Q9NWZ3).
T1 sequence (Q9NWZ3 1-460): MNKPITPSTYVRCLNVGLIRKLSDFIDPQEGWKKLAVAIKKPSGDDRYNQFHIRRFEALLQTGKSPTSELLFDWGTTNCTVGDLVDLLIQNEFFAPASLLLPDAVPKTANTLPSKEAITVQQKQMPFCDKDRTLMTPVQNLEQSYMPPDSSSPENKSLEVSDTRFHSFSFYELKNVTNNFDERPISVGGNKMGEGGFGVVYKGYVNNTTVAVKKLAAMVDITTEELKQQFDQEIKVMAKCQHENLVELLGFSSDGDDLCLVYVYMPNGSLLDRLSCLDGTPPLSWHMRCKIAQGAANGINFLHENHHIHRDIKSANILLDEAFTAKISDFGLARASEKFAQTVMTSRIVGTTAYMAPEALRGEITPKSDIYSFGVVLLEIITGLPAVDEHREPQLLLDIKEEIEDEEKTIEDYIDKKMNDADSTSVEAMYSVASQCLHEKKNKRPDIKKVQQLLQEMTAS
Nature of the test: biochemical.
Conditions: not given
As a reminder, the IC50 is the midpoint of a concentration-inhibition curve. High values mean weaker potency, low ones greater potency. On to `CC(Oc1cc2nc(C34COC(C)(C3)C4)cn2cc1C(=O)Nc1cccc(C(F)F)n1)C(F)(F)F` (centres unmarked) [Example 323, N-(6-(difluoromethyl)pyridin-2-yl)-2-(1-methyl-2-oxabicyclo[2.1.1]hexan-4-yl)-7-((1,1,1-trifluoropropan-2-yl)oxy)imidazo[1,2-a]pyridine-6-carboxamide], for which half-maximal inhibition (IC50) required 0.0007 µM.

Take `CC(C)Oc1nc2nc([C@@]34CC[C@@](C)(C3)OC4)cn2cc1C(=O)Nc1cccn(C(F)F)c1=O` (single isomer, unassigned) [Example 628]: half-maximal inhibition (IC50) was put at 0.0001 µM.

In the case of `CC(C)Oc1nc2nc(C34COC(C)(C3)C4)cn2cc1C(=O)Nc1cccc2scnc12` [Example 378, N-(benzo[d]thiazol-4-yl)-7-isopropoxy-2-(1-methyl-2-oxabicyclo[2.1.1]hexan-4-yl)imidazo[1,2-a]pyrimidine-6-carboxamide], 0.0002 µM corresponded to half-maximal inhibition (IC50).

`COc1cccc(NC(=O)c2cn3cc(C(F)F)nc3cc2OC(C)C)n1` [Example 100] had a concentration for half-maximal inhibition (IC50) of 0.0178 µM.

For the compound `Cn1cc(-c2cccc(NC(=O)c3cn4cc(C56CCC(C)(C5)OC6)nc4cc3OC3CCC3)n2)cn1` (centres unmarked) [Example 542, 7-Cyclobutoxy-N-(6-(1-methyl-1H-pyrazol-4-yl)pyridin-2-yl)-2-(1-methyl-2-oxabicyclo[2.2.1]heptan-4-yl)imidazo[1,2-a]pyridine-6-carboxamide], half-maximal inhibition (IC50) was put at 0.0001 µM.

Compound `CC(C)Oc1nc2nc(C34COC(C)(C3)C4)cn2cc1C(=O)Nc1cccc(C2CC2)n1` [Example 387, N-(6-cyclopropylpyridin-2-yl)-7-isopropoxy-2-(1-methyl-2-oxabicyclo[2.1.1]hexan-4-yl)imidazo[1,2-a]pyrimidine-6-carboxamide] displayed an IC50 of 0.0009 µM.

For the compound `CC1(C)CC(Oc2cc3nc(C45COC(C)(C4)C5)cn3cc2C(=O)Nc2cccn(C(F)F)c2=O)C1` [Example 445, N-(1-(difluoromethyl)-2-oxo-1,2-dihydropyridin-3-yl)-7-(3,3-dimethylcyclobutoxy)-2-(1-methyl-2-oxabicyclo[2.1.1]hexan-4-yl)imidazo[1,2-a]pyridine-6-carboxamide], half-maximal inhibition (IC50) required 0.0006 µM.

As for `COc1nc(C(=O)Nc2cccc(C(F)F)n2)cn2cc(C34CCOC(C)(C3)C4)nc12` [Example 234], the IC50 came to 0.0053 µM.

`CC12CC(c3cn4cc(C(=O)Nc5cnc6cccnn56)c(OC5CCCC5)nc4n3)(CO1)C2` [Example 650, 7-(cyclopentyloxy)-N-(imidazo[1,2-b]pyridazin-3-yl)-2-(1-methyl-2-oxabicyclo[2.1.1]hexan-4-yl)imidazo[1,2-a]pyrimidine-6-carboxamide] registered an IC50 of 0.0001 µM.

`CC(C)Oc1nc2nc(C34COC(CF)(C3)C4)cn2cc1C(=O)Nc1cccc(C(F)F)n1` [Example 564, N-(6-(difluoromethyl)pyridin-2-yl)-2-(1-(fluoromethyl)-2-oxabicyclo[2.1.1]hexan-4-yl)-7-isopropoxyimidazo[1,2-a]pyrimidine-6-carboxamide] returned a concentration for half-maximal inhibition (IC50) of 0.0003 µM.

`CC12CCC(c3cn4cc(C(=O)Nc5ccn(CC(F)F)n5)c(OC5CCC5)cc4n3)(CO1)C2` (centres unmarked) [Example 543, 7-Cyclobutoxy-N-(1-(2,2-difluoroethyl)-1H-pyrazol-3-yl)-2-(1-methyl-2-oxabicyclo[2.2.1]heptan-4-yl)imidazo[1,2-a]pyridine-6-carboxamide] returned a 50% inhibitory concentration (IC50) of 0.0044 µM.

In turn, `CC12CC(c3cn4cc(C(=O)Nc5cccn(C(F)F)c5=O)c(OC5CCOC5)cc4n3)(CO1)C2` (centres unmarked) [Example 443, N-(1-(difluoromethyl)-2-oxo-1,2-dihydropyridin-3-yl)-2-(1-methyl-2-oxabicyclo[2.1.1]hexan-4-yl)-7-((tetrahydrofuran-3-yl)oxy)imidazo[1,2-a]pyridine-6-carboxamide] came in with a concentration for half-maximal inhibition (IC50) of 0.0017 µM.

The compound `CC(C)Oc1cc2nc(C34COC(C)(C3)C4)c(F)n2cc1C(=O)Nc1cnn2cccnc12` [Example 328, 3-Fluoro-7-isopropoxy-2-(1-methyl-2-oxabicyclo[2.1.1]hexan-4-yl)-N-(pyrazolo[1,5-a]pyrimidin-3-yl)imidazo[1,2-a]pyridine-6-carboxamide] had a concentration for half-maximal inhibition (IC50) of 0.006 µM.

For the compound `CC12CC(c3cn4cc(C(=O)Nc5cnn6cccnc56)nc(OC5CCC5)c4n3)(CO1)C2` [Example 349, 8-Cyclobutoxy-2-(1-methyl-2-oxabicyclo[2.1.1]hexan-4-yl)-N-(pyrazolo[1,5-a]pyrimidin-3-yl)imidazo[1,2-a]pyrazine-6-carboxamide], the IC50 came out at 0.0053 µM.

Compound `COc1ncccc1NC(=O)c1cn2cc(C34COC(C3)C4)nc2cc1OC(C)C` [Example 545, 2-(2-Oxabicyclo[2.1.1]hexan-4-yl)-7-isopropoxy-N-(2-methoxypyridin-3-yl)imidazo[1,2-a]pyridine-6-carboxamide] showed an IC50 of 0.0013 µM.

`CCOc1nc2nc(C34COC(C)(C3)C4)cn2cc1C(=O)Nc1cccc(C(F)F)n1` [Example 241] had a half-inhibitory concentration (IC50) of 0.0015 µM.

Turning to `COc1nc(C(=O)Nc2cccc(C(F)(F)F)n2)cn2cc(C34CCOC(C)(C3)C4)nc12` [Example 238], the IC50 was 0.0064 µM.

`CC12CCC(c3cn4cc(C(=O)Nc5ccn(CC6CC6)n5)c(OC5CCC5)cc4n3)(CO1)C2` (centres unmarked) [Example 534, 7-Cyclobutoxy-N-(1-(cyclopropylmethyl)-1H-pyrazol-3-yl)-2-(1-methyl-2-oxabicyclo[2.2.1]heptan-4-yl)imidazo[1,2-a]pyridine-6-carboxamide] had an IC50 of 0.0135 µM.

In turn, `CC(C)Oc1cc2nc(C34COC(C)(C3)C4)cn2cc1C(=O)Nc1ccnc(C(F)F)c1` [Example 258, N-(2-(difluoromethyl)pyridin-4-yl)-7-isopropoxy-2-(1-methyl-2-oxabicyclo[2.1.1]hexan-4-yl)imidazo[1,2-a]pyridine-6-carboxamide] displayed an IC50 of 0.0596 µM.

As for `CC(C)Oc1nc2nc(C34COC(C)(C3)C4)cn2cc1C(=O)Nc1cccc(-c2cnn(C)c2)n1` [Example 413, 7-Isopropoxy-N-(6-(1-methyl-1H-pyrazol-4-yl)pyridin-2-yl)-2-(1-methyl-2-oxabicyclo[2.1.1]hexan-4-yl)imidazo[1,2-a]pyrimidine-6-carboxamide], the IC50 came out at 0.0001 µM.

In turn, `CCn1cccc(NC(=O)c2cn3cc(C4CCOCC4)nc3cc2OC)c1=O` [Example 185] returned an IC50 of 0.0434 µM.

In turn, `CCOc1nc(C(=O)Nc2cc(F)cn(C)c2=O)cn2cc(C3CCCOC3)nc12` (centres unmarked) [Example 272, 8-Ethoxy-N-(5-fluoro-1-methyl-2-oxo-1,2-dihydropyridin-3-yl)-2-(tetrahydro-2H-pyran-3-yl)imidazo[1,2-a]pyrazine-6-carboxamide] showed an IC50 of 0.0098 µM.

Compound `Cc1cc(-n2ccc(NC(=O)c3cn4cc(C56COC(C)(C5)C6)nc4cc3OC3CCC3)n2)ccn1` [Example 522, 7-Cyclobutoxy-2-(1-methyl-2-oxabicyclo[2.1.1]hexan-4-yl)-N-(1-(2-methylpyridin-4-yl)-1H-pyrazol-3-yl)imidazo[1,2-a]pyridine-6-carboxamide] registered a concentration for half-maximal inhibition (IC50) of 0.0005 µM.

Still in this test, the particulars now being: IRAK4 Biochemical Assay (1 mM ATP, 2 h) IC50 (μM), 1 mM ATP, 2 h, 100 pM IRAK4.
The compound `CCOc1nc(C(=O)Nc2cc(F)cn(C)c2=O)cn2cc(C34CCC(C)(C3)OC4)nc12` (centres unmarked) [Example 277, 8-Ethoxy-N-(5-fluoro-1-methyl-2-oxo-1,2-dihydropyridin-3-yl)-2-(1-methyl-2-oxabicyclo[2.2.1]heptan-4-yl)imidazo[1,2-a]pyrazine-6-carboxamide trifluoroacetate] registered an IC50 of 0.0061 µM.

Consider `CC(C)Oc1nc2nc(C34CCC(C)(CC3)OC4)cn2cc1C(=O)Nc1cccn(C)c1=O` [Example 654, 7-isopropoxy-N-(1-methyl-2-oxo-1,2-dihydropyridin-3-yl)-2-(1-methyl-2-oxabicyclo[2.2.2]octan-4-yl)imidazo[1,2-a]pyrimidine-6-carboxamide], for which the half-inhibitory concentration (IC50) came to 0.0005 µM.

Compound `CC(C)Oc1c(C(=O)Nc2cccc(C(F)(F)F)n2)cn2cc(C34COC(C)(C3)C4)nc2c1F` [Example 230, 8-Fluoro-7-isopropoxy-2-(1-methyl-2-oxabicyclo[2.1.1]hexan-4-yl)-N-(6-(trifluoromethyl)pyridin-2-yl)imidazo[1,2-a]pyridine-6-carboxamide trifluoroacetate] returned an IC50 of 0.003 µM.

In turn, `COc1cc2nc(C34CC(OC)(C3)C4)cn2cc1C(=O)Nc1ccccn1` [Example 2] returned an IC50 of 0.0586 µM.

`COc1cccc(NC(=O)c2cn3cc(C45CCC(C)(CC4)OC5)nc3cc2OC)n1` [Example 29] showed a concentration for half-maximal inhibition (IC50) of 0.0041 µM.

The compound `COc1ncccc1NC(=O)c1cn2cc(C34COC(C)(C3)C4)nc2nc1OC(C)C` [Example 305, 7-Isopropoxy-N-(2-methoxypyridin-3-yl)-2-(1-methyl-2-oxabicyclo[2.1.1]hexan-4-yl)imidazo[1,2-a]pyrimidine-6-carboxamide trifluoroacetate] gave an IC50 of 0.0005 µM.

For the compound `COc1nc(C(=O)Nc2ccccn2)cn2cc(C3CCOCC3)nc12` [Example 78], the midpoint of inhibition, the IC50, lay at 0.0475 µM.

As for `CC1(COc2cc3nc(C45COC(C)(C4)C5)cn3cc2C(=O)Nc2cccn(C(F)F)c2=O)CCOC1` (centres unmarked) [Example 444, N-(1-(difluoromethyl)-2-oxo-1,2-dihydropyridin-3-yl)-2-(1-methyl-2-oxabicyclo[2.1.1]hexan-4-yl)-7-((3-methyltetrahydrofuran-3-yl)methoxy)imidazo[1,2-a]pyridine-6-carboxamide], 0.0042 µM corresponded to half-maximal inhibition (IC50).

`CC(C)Oc1cc2nc(C3C4COCC43)cn2cc1C(=O)Nc1cccc(C(F)F)n1` (centres unmarked) [Example 253, 2-(3-Oxabicyclo[3.1.0]hexan-6-yl)-N-(6-(difluoromethyl)pyridin-2-yl)-7-isopropoxyimidazo[1,2-a]pyridine-6-carboxamide hydrochloride]: half-maximal inhibition (IC50) required 0.0004 µM.
